From patent publication US11124536B2, “Uridine nucleoside derivatives, compositions and methods of use” (Tufts University, priority 2013, dated 2021)
Entries after “also recorded” stand apart in the source; their conditions may differ. Values belong to the compound of their own block, whether it stands above or below them.

Legend:
[1] = molecular target: T1, P2Y6 receptor (Homo sapiens, UniProt Q15077); assay: Activation of P2Y6 receptor: receptor-induced Ca2+ changes with fluo-4; type: cell-based
T1 construct: expressed in transfected cells; host or cells: 1321N1 human astrocytoma cells
T1 sequence (Q15077 whole entry): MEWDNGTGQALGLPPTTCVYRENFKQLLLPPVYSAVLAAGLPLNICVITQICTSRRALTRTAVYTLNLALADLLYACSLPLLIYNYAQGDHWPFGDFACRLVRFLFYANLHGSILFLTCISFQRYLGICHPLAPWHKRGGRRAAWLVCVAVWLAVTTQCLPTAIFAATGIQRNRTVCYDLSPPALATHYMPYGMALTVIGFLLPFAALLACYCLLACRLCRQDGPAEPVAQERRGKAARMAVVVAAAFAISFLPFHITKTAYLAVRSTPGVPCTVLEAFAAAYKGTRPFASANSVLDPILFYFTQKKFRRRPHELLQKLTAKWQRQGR
Method: Synthetic ligands were tested for activation of P2Y6 receptor by measuring receptor induced Ca^2+ changes with the fluorescent Ca^2+ indicator fluo-4. 1321N1 human astrocytoma cell lines either expressing P2Y2, P2Y4 or P2Y6 receptors were plated into 24-well plates. Two days after plating, fluorometric measurements were made and responses of cells to a serial dilution of ligands were determined. P2Y6 receptor mediated Ca^2+ fluorescent change was determined by normalized accumulation of fluorescent change of 3 timepoints after ligand administration subtracted by value from ACSF control. Changes in fluorescent intensity were plotted corresponding to ligand concention in GraphPad. Dose-response curve and EC50 for each ligand was estimated using nonlinear curve fit and Sigmoidal dose-response analysis. […]
Synthetic ligands were tested for activation of P2Y6 receptor by measuring receptor induced Ca^2+ changes with the fluorescent Ca^2+ indicator fluo-4, and results are shown in FIG. 10(A)-(K). […] Two days after plating, fluorometric measurements were made and responses of cells to a serial dilution of ligands were determined. P2Y6 receptor mediated Ca^2+ fluorescent change was determined by normalized accumulation of fluorescent change of 3 timepoints after ligand administration subtracted by value from ACSF control. […]

[2] = system: PSAPP mice; assay: Postmortem immunohistochemistry of amyloid beta plaque load in cortex and hippocampus; type: in vivo
Method: Mice were perfused transcardially with 4% paraformaldehyde and 40 μm Coronal sections were collected. Sections were sequentially incubated in 0.3% H2O2 for 10 minutes, blocking solution for 2 hrs, blocking solution containing the primary antibody (rabbit anti-beta1-42; rabbit anti-beta1-40, from Chemicon International and rat anti-CD45) for 48 hours at 4° C., and blocking solution containing biotinylated antibody or fluorescently-labeled antibody for 2 hours at room temperature. Sections were visualized in a bright field microscope or a confocal microscope, and the optical density was obtained using MetaMorph software.
To generate these graphs showing plaque load, mice were euthanized, brain sections cut and antibodies directed against Aβ 42 were used to disclose Aβ plaques. Images were acquired digitally and an algorithm was applied to threshold the image so that plaques were isolated from the background. The algorithm then calculated the percent area of the field of view occupied by the plaques.
Brain samples were collected for Abeta analysis with immunostaining. Brains samples were collected after transcardial perfusion with phosphate buffer and 4% paraformaldehyde. Floating brain sections (40 micron) were collected using a microtome. Immunostaining for Aβ40 and Aβ42 were performed according to previously established protocol. Images with DAB staining were collected with brightfield microscopy and analyzed with ImageJ Macro. All data analysis and statistics were performed in GraphPad Prism 6.0.

[3] = system: PSAPP mice; assay: Contextual fear conditioning test (freezing %); type: in vivo
Method: On day one, animals were trained in a fear conditioning apparatus for a total of 7 minutes with a two-pairing paradigm of cue and mild foot shock (a 30-s acoustic-conditioned stimulus, 80 dB; a 2-s shock stimulus, 0.5 mA). To evaluate contextual fear learning, the animals were returned to the training context 24 hours post-training, and freezing behavior was scored for 5 minutes. Freezing behavior was monitored by MotorMonitor (Hamilton Kinder) and scored every 5 seconds.
This represents a decrease in the cognitive impairment observed in the untreated mice.

[4] = system: human THP-1 cells; assay: Cytokine release from THP-1 cells into culture medium (multiplex cytokine analysis); type: cell-based
Method: THP-1 cells, a human cell line derived from monocytes, were treated in vitro with vehicle, the P2Y6 receptor antagonist MRS 2578, or compound 5, singly or in combination. THP-1 cells were seeded in 24 well plates at a density of 4×10^5 cells/well in culture medium for 24 hours. Thereafter, vehicle, compound 5, or MRS 2578 (singly or in combination) were added to the cultures for 24 hours. Subsequently the culture medium was aspirated and subjected to multiplex cytokine analysis. Data are presented as means+/−sem. MRS 2578 has a molecular weight of about 472 and is also described using CAS number 711019-86-2.

[5] = system: PSAPP mice; assay: Two-photon in vivo imaging of methoxyX04-labeled amyloid plaques in barrel cortex; conditions: UDP vs ACSF
Description: In this study, PSAPP mice were anesthetized using isoflurane and a thin-skull preparation was used to minimize the surface damage. Amyloid plaques were visualized with methoxyX04 labeling and blood plasma was labeled with Rhodamine dextran to facilitate re-localization of the same imaging area. Stack images were obtained using a two-photon system (Prairie Technologies) with excitation at 850 nm. The emission was detected by external photomultiplier tubes (525/70; DLCP 575; 607/45 nm).
Animals were anesthetized and immobilized in a stereotaxic frame. For each injection, 1 μl of 10 mM UDP or other suitable compounds in artificial cerebrospinal fluid (ACSF) as the vehicle were injected intraventricularly using the following coordinates: AP 0.2 mm, ML 1 mm, and DV 2.2 mm.
To evaluate the effect of UDP on plaque burden, two-photon microscopy was used to assess the amyloid plaques in the barrel cortex in living PSAPP mice. Amyloid plaques were stained by systemically administered methoxy-X04. One day prior to imaging, PSAPP mice were injected with methoxyX04 to label the amyloid plaques. On the imaging day, to facilitate the re-location of the same imaging area, blood plasma was labeled with Rhodamine dextran. Images were obtained from the same start- and end-point to ensure the same image volume. […]

[6] = system: PSAPP mice; assay: Hippocampal long-term potentiation (LTP) recording, CA1; type: in vivo
Method: Hippocampal slices (350 μm thick) were prepared from 6-month-old PSAPP mice. Baseline responses were obtained every 10 seconds and Input-output (I/O) curves, paired-pulse modification and LTP were successively measured. The stimulation intensity was set to a level that gives a value of 30% of the maximum obtained. LTP were induced by high frequency stimulation (HFS, 100 pulses at 100 Hz, four times) or by theta-burst stimulation (TBS, 10 bursts at 5 Hz, repeated 10 times in 15 s intervals).
Accumulated evidence has shown that amyloid peptides naturally secreted or isolated from Alzheimer's brains impair synaptic plasticity, especially hippocampal long-term potentiation (Walsh et al., 2002). Therefore, we further performed LTP recordings in PASPP mice and investigated whether P2Y6 receptor-mediated plaque clearance affects synaptic plasticity. […] First, it was observed that LTP at the schaffer collateral synapse within the CA1 region was depressed in PSAPP mice, as compared with littermates (FIG. 8(A)).

elevating Ca2+ levels in cells expressing P2Y6 receptors ([1]; 1321N1 human astrocytoma cells expressing P2Y6): only effective
Structure (SMILES): O=c1ccn([C@@H]2O[C@H](COP(=O)(O)OP(=O)(O)O)[C@@H](O)[C@H]2O)c(=O)n1Cc1noc2ccccc12

Structure (SMILES): O=C(Cn1c(=O)ccn([C@@H]2O[C@H](COP(=O)(O)OP(=O)(O)O)[C@@H](O)[C@H]2O)c1=O)c1ccccc1 [3-phenacyl-UDP, reference compound]
effects on the efficacy endpoint at the higher dose ([2]; 1 mg/kg, one week of daily treatment): smaller effects | β1-40 staining after treatment stopped ([2]; 6 consecutive days i.p. then stopped for 2 weeks (6+2 weeks group), level still lower than saline vehicle): rebounded | immunoreactivity of β1-40 in cortex ([2]; i.p. for 4 and 6 consecutive days, FIG. 6A): significantly decreased | immunoreactivity of β1-40 in hippocampus ([2]; i.p. for 4 and 6 consecutive days, FIG. 6B): significantly decreased | total freezing percentage in context test ([3]; chronic injection, two different doses): increased | memory deficit (contextual fear conditioning) compared to vehicle ([3]; one week treatment with 1 μg/kg, FIG. 9C): rescued the memory deficit

Structure (SMILES): S=C=Nc1cccc(NC(=S)NCCCCNC(=S)Nc2cccc(N=C=S)c2)c1 [MRS 2578]
effect of antagonist on Ca2+ signals elevated by the sodium salt of the diphosphate derivative of compound 5 ([1]; P2Y6 receptor expressing 1321N1 cells): attenuated | release of fractalkine, PDGF-BB, and IL-7 (concentration in culture medium) ([4]; 24 hours treatment vs vehicle, FIG. 25): increased | release of IL-7 from human THP-1 cells ([4]; MRS 2578 alone, 24 hours, FIG. 26): increased | effect of co-treatment on the decrease of IL-7/cytokine release caused by compound 5 ([4]; compound 5 plus MRS 2578, FIG. 26): blocked; also recorded: abrogated

Structure (SMILES): O=c1ccn([C@@H]2O[C@H](COP(=O)(O)OP(=O)(O)O)[C@@H](O)[C@H]2O)c(=O)[nH]1 [UDP, uridine diphosphate]
decrease in plaque load in the cortex, β1-42 antibody ([2]; acute UDP i.c.v., P<0.01): 48% | decrease in plaque load in the hippocampus, β1-42 antibody ([2]; acute UDP i.c.v., P<0.05): 47% | decrease in plaque load in the hippocampus, β1-40 antibody ([2]; acute UDP i.c.v., p<0.01): 62% | decrease in plaque load in the cortex, β1-40 antibody ([2]; acute UDP i.c.v., p<0.05): 60% | day 4/day 1 ratios of plaque load ([5]; FIG. 2D): significant reductions | number of plaques (day 4/day 1 ratios) ([5]; FIG. 2E): significant reductions | LTP deficit at schaffer collateral synapse, CA1 ([6]; acute UDP vs ACSF, HFS, FIG. 8B): reversed | field excitatory postsynaptic potential (fEPSP), last 15 min potentiation ([6]; acute UDP, comparable to littermates, FIG. 8C): significant increase | freezing behavior compared to ACSF treatment ([3]; UDP-treatment 3 days prior to the test, FIG. 7C): significantly improved
